Measurements as given in patent publication US12600725B2 (Memorial Sloan-Kettering Cancer Center, priority 2013, dated 2026).
Like-named read-outs stand apart in the source and are kept apart here.

Columns and labels:
[1] = system: MDA-MB-468 cells; assay: Growth inhibition assay (Alamar blue); format: cell-based; conditions: Homo sapiens
Procedure: We evaluated the antiproliferative effects of inhibitors using the dye Alamar blue. This reagent offers a rapid objective measure of cell viability in cell culture, and it uses the indicator dye resazurin to measure the metabolic capacity of cells, an indicator of cell viability. Briefly, MDA-MB-468 cells were plated on Costar 96-well plates at 1500 cells/well. Cells were allowed to incubate for 24 h at 37° C. before drug treatment. Drugs were added in triplicate at the indicated concentrations, and the plate was incubated for 72 h. Alamar Blue (440 μM) was added, and the plate read 6 h later using Softmax Pro 6 software (Fluorescence intensity mode, excitation 530 nm, emission 580 nm, with 560 nm dichroic mirror). Results were analyzed using GraphPad Prism 5. The percentage cell growth inhibition was calculated by comparing fluorescence readings obtained from treated versus control cells, accounting for initial cell population (time zero).

[2] = target: T1, Grp94 (Canis lupus familiaris, UniProt P41148); conditions: read-out: Grp94; FP competition, 6 nM Cy3B-GM, 10 nM protein, 4° C. for 24 h
T1 sequence (P41148 with tags, fused parts or gaps DELINS287-327GGGG): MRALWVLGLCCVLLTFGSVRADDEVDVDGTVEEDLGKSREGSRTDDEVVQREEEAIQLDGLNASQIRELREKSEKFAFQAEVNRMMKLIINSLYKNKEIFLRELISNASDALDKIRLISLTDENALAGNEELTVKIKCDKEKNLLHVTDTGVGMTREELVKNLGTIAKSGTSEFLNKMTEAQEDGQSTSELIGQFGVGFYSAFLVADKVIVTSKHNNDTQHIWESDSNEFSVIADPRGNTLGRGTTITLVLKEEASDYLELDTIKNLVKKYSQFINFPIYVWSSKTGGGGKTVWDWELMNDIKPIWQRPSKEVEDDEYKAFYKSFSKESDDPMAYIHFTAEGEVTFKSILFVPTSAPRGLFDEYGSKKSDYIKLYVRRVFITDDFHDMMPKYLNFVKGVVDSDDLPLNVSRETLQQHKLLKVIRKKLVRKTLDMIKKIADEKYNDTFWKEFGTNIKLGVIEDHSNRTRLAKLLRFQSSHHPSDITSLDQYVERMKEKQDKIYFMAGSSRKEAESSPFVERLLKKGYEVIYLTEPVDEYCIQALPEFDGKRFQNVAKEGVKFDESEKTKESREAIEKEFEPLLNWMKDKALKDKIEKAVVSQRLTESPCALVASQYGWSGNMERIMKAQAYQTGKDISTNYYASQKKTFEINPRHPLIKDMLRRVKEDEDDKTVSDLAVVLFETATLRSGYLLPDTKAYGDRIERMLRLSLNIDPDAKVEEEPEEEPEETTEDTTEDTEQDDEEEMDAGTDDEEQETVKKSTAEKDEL

[3] = target: Hsp90α (Homo sapiens, UniProt P07900); assay: biochemical; conditions: FP competition, 6 nM Cy3B-GM, 10 nM protein, 4° C. for 24 h
[4] = target: T1, Grp94; conditions: read-out: Grp94 IC50; 43a as FP probe
[5] = target: T2, Trap-1 (Homo sapiens, UniProt Q12931); conditions: relative to Hsp90
T2 sequence (Q12931 60-704): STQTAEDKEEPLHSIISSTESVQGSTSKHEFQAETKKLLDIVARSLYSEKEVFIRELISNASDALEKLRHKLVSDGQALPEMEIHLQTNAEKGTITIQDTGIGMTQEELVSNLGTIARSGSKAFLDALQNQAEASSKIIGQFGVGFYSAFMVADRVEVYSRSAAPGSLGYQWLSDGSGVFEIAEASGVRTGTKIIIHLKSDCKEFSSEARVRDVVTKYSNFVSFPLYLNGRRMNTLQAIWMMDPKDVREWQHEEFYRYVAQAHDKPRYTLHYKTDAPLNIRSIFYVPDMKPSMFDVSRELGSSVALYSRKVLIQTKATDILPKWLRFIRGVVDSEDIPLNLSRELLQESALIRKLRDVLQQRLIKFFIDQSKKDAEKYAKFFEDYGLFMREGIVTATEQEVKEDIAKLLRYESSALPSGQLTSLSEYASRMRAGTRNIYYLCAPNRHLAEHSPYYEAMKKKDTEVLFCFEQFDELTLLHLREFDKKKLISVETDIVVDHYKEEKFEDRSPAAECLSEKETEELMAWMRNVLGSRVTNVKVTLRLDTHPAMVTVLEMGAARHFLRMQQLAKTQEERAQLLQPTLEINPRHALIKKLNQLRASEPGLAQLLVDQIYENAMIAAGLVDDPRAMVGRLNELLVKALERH

[6] = target: T2, Trap-1; assay: biochemical
[7] = target: Hsp90β (Homo sapiens, UniProt P08238)
Sequence of Hsp90β (P08238 whole entry): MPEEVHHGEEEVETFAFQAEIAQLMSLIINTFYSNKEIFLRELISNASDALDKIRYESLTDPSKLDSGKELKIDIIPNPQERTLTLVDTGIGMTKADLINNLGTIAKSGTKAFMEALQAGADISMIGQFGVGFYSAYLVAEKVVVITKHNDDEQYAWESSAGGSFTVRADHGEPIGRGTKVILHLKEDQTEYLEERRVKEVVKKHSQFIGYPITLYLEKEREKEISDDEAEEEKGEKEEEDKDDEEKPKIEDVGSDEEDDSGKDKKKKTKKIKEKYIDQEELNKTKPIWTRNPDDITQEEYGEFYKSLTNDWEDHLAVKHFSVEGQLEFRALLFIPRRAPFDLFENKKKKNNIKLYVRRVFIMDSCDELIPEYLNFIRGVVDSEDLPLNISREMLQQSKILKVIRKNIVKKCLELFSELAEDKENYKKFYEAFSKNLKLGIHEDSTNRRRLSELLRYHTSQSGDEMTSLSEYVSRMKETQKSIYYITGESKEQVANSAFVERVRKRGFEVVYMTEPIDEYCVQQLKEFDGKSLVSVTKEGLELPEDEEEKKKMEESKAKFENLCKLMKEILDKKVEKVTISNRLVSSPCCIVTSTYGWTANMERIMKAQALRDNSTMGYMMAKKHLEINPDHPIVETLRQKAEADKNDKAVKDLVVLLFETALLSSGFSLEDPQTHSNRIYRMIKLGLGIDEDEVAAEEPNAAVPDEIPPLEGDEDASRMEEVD

| Structure (SMILES) | IC50 [1] [nM] | IC50 [2] [nM] | IC50 [3] [nM] | IC50 [4] [nM] | decrease in binding efficacy for Trap-1 [5] [fold] | IC50 [6] [nM] | IC50 [7] [nM] |
| --- | --- | --- | --- | --- | --- | --- | --- |
| C#Cc1cc(Cl)cc(Sc2nc3c(N)ncnc3n2CCCNC(C)C)c1 [HJP-VI-18, 8-((3-chloro-5-ethynylphenyl)thio)-9-(3-(isopropylamino)propyl)-9H-purin-6-amine] | 122 | 900 | 152000 | – | – | – | – |
| C[C@H](NCCCn1c(Sc2cc(Cl)cc(Cl)c2)nc2c(N)ncnc21)C1CC1 [SO-III-127B, (S)-9-(3-((1-cyclopropylethyl)amino)propyl)-8-((3,5-dichlorophenyl)thio)-9H-purin-6-amine] | 830 | 345 | 40400 | – | – | – | – |
| CC(C)NCCCn1c(Sc2cc(Cl)cc(-c3ccoc3)c2)nc2c(N)ncnc21 [HJP-VI-39, 8-((3-chloro-5-(furan-3-yl)phenyl)thio)-9-(3-(isopropylamino)propyl)-9H-purin-6-amine] | 166 | 280 | 21300 | – | – | – | – |
| CC(C)(C)CNCCCn1c(Sc2cc(Cl)cc(Cl)c2)nc2c(N)nc(F)nc21 [HJP-VI-85, 8-((3,5-dichlorophenyl)thio)-2-fluoro-9-(3-(neopentylamino)propyl)-9H-purin-6-amine] | 164 | 186 | > 50000 | – | – | – | – |
| CC(C)(C)NCCCn1c(Sc2cc(Cl)cc(Cl)c2)nc2c(N)nc(F)nc21 [HJP-VI-86, 9-(3-(tert-butylamino)propyl)-8-((3,5-dichlorophenyl)thio)-2-fluoro-9H-purin-6-amine] | 53 | 156 | 20900 | – | – | – | – |
| CC(C)c1cc(-c2n[nH]c(=O)n2-c2ccc3c(ccn3C)c2)c(O)cc1O [STA-9090] | – | – | – | 10 | – | – | – |
| CC(C)NCCCn1c(Sc2cc(Cl)cc(-c3ccc[nH]3)c2)nc2c(N)ncnc21 [HJP-VI-28, 8-((3-chloro-5-(1H-pyrrol-2-yl)phenyl)thio)-9-(3-(isopropylamino)propyl)-9H-purin-6-amine] | 286 | 220 | – | – | – | – | – |
| C[C@@H](NCCCn1c(Sc2cc(Cl)cc(Cl)c2)nc2c(N)ncnc21)C1CC1 [SO-III-128B, (R)-9-(3-((1-cyclopropylethyl)amino)propyl)-8-((3,5-dichlorophenyl)thio)-9H-purin-6-amine] | 840 | 276 | 35600 | – | – | – | – |
| C/C=C\c1cc(Cl)cc(Sc2nc3c(N)ncnc3n2CCCNC(C)C)c1 [HJP-VI-78, (Z)-8-((3-chloro-5-(prop-1-en-1-yl)phenyl)thio)-9-(3-(isopropylamino)propyl)-9H-purin-6-amine] | 580 | 214 | 18600 | – | – | – | – |
| CC(C)NCCCn1c(Sc2cc(Cl)cc(-c3ncco3)c2)nc2c(N)ncnc21 [HJP-VI-49, 8-((3-chloro-5-(oxazol-2-yl)phenyl)thio)-9-(3-(isopropylamino)propyl)-9H-purin-6-amine] | 3120 | 1300 | 29600 | – | – | – | – |
| C/C=C/c1cc(Cl)cc(Sc2nc3c(N)ncnc3n2CCCNC(C)C)c1 [HJP-VI-63, (E)-8-((3-chloro-5-(prop-1-en-1-yl)phenyl)thio)-9-(3-(isopropylamino)propyl)-9H-purin-6-amine] | 226 | 340 | > 50000 | – | – | – | – |
| C=C(c1cc(Cl)cc(Sc2nc3c(N)ncnc3n2CCCNC(C)C)c1)C(F)(F)F [HJP-VI-70, 8-((3-chloro-5-(3,3,3-trifluoroprop-1-en-2-yl)phenyl)thio)-9-(3-(isopropylamino)propyl)-9H-purin-6-amine] | 2160 | 153 | 13800 | – | – | – | – |
| CCNC(=O)c1noc(-c2cc(C(C)C)c(O)cc2O)c1-c1ccc(CN2CCOCC2)cc1 [NVP-AUY922] | – | – | – | – | 2 | – | – |
| CC(C)NCCCn1c(Sc2cc(Cl)cc(I)c2)nc2c(N)ncnc21 [HJP-V-149, 8-((3-chloro-5-iodophenyl)thio)-9-(3-(isopropylamino)propyl)-9H-purin-6-amine] | 125 | 240 | 43200 | – | – | – | – |
| CC(C)NCCCn1c(Sc2ccc(Cl)cc2I)nc2c(N)ncnc21 [HJP-VI-36, 8-((4-chloro-2-iodophenyl)thio)-9-(3-(isopropylamino)propyl)-9H-purin-6-amine] | 5850 | 210 | 3400 | – | – | – | – |
| C=C(C)c1cc(Cl)cc(Sc2nc3c(N)ncnc3n2CCCNC(C)C)c1 [HJP-VI-12, 8-((3-chloro-5-(prop-1-en-2-yl)phenyl)thio)-9-(3-(isopropylamino)propyl)-9H-purin-6-amine] | 63 | 210 | 20000 | – | – | – | – |
| CC(C)NCCCn1c(Sc2ccc(Cl)cc2-c2ccn[nH]2)nc2c(N)ncnc21 [HJP-VI-43, 8-((4-chloro-2-(1H-pyrazol-5-yl)phenyl)thio)-9-(3-(isopropylamino)propyl)-9H-purin-6-amine] | 6580 | 450 | 1500 | – | – | – | – |
| CC(C)CNCCCn1c(Sc2cc(Cl)cc(I)c2)nc2c(N)ncnc21 [HJP-VI-4, 8-((3-chloro-5-iodophenyl)thio)-9-(3-(isobutylamino)propyl)-9H-purin-6-amine] | 212 | 290 | 41800 | – | – | – | – |
| CC(C)(C)NCCCn1c(Sc2cc(Cl)cc(I)c2)nc2c(N)ncnc21 [HJP-VI-6, 9-(3-(tert-butylamino)propyl)-8-((3-chloro-5-iodophenyl)thio)-9H-purin-6-amine] | 314 | 540 | 27800 | – | – | – | – |
| CC(C)NCCCn1c(Sc2cc(Cl)cc(-c3ccn[nH]3)c2)nc2c(N)ncnc21 [HJP-VI-29, 8-((3-chloro-5-(1H-pyrazol-5-yl)phenyl)thio)-9-(3-(isopropylamino)propyl)-9H-purin-6-amine] | 516 | 1200 | 25900 | – | – | – | – |
| C#CCCCn1cnc(N)c2nc(Sc3cc(Br)cc(OC(F)(F)F)c3)nc1-2 [PDP-120B] | – | > 10000 | > 100000 | – | – | > 100000 | > 100000 |
| C#CCCCCn1cnc(N)c2nc(Sc3cc(Cl)cc(Cl)c3)nc1-2 [PDP-112B, 8-((3,5-Dichlorophenyl)thio)-3-(hex-5-yn-1-yl)-3H-purin-6-amine] | – | > 10000 | > 100000 | – | – | > 100000 | > 100000 |
| C#CCCCn1c(Sc2cc(Cl)cc(Cl)c2Cl)nc2c(N)ncnc21 [PDP-125A] | – | 190 ± 10 | > 100000 | – | – | 6040 ± 550 | > 100000 |
| CC(C)(C)CNCCCn1c(Sc2cc(Cl)cc(I)c2)nc2c(N)ncnc21 [HJP-VI-5, 8-((3-chloro-5-iodophenyl)thio)-9-(3-(neopentylamino)propyl)-9H-purin-6-amine] | 562 | 490 | > 25000 | – | – | – | – |
| CC(C)NCCCn1c(Sc2cc(Cl)cc(-c3cc[nH]c3)c2)nc2c(N)ncnc21 [HJP-VI-44, 8-((3-chloro-5-(1H-pyrrol-3-yl)phenyl)thio)-9-(3-(isopropylamino)propyl)-9H-purin-6-amine] | 917 | 830 | 12300 | – | – | – | – |
| COc1cc(Cc2nc3c(N)ncnc3n2C(C)C)cc(OC)c1OC [PU-27] | – | 59300 ± 2690 | > 500000 | – | – | > 300000 | > 250000 |
| C#CCCCn1cnc(N)c2nc(Sc3cc(Cl)cc(Cl)c3Cl)nc1-2 [PDP-125B] | – | 5210 | > 100000 | – | – | 58800 | > 100000 |
| Nc1ncnc2c1nc(Sc1cc(Cl)cc(Cl)c1)n2CCC(F)(F)F [PDP-I-13-N9, 8-((3,5-Dichlorophenyl)thio)-9-(3,3,3-trifluoropropyl)-9H-purin-6-amine] | – | 570 ± 80 | > 50000 | – | – | 10100 ± 1130 | > 100000 |
| C=Cc1cc(Cl)cc(Sc2nc3c(N)ncnc3n2CCCNC(C)C)c1 [HJP-VI-31, 8-((3-chloro-5-vinylphenyl)thio)-9-(3-(isopropylamino)propyl)-9H-purin-6-amine] | 129 | 630 | 48900 | – | – | – | – |
